Source: US9982005B2, “Macrolides and methods of their preparation and use” (President and Fellows of Harvard College, priority 2013, dated 2018)
In brackets after ≈: the same amount, converted by molar mass. Like-named read-outs stand apart in the source and are kept apart here.

Key:
Format in all cases: cell-based
[1] = tested on: E. faecalis strains; assay: MIC against E. faecalis strains (Table M8); details: Enterococcus faecalis, E. faecalis 29212
[2] = tested on: H. influenzae strains; assay: MIC against H. influenzae strains (Table M8); details: Haemophilus influenzae
Method in brief: (§1)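 Following CLSI guidelines, each compound was serially diluted in broth against the bacterial strain and the MIC recorded. Azithromycin was included in parallel as a comparator macrolide.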

[3] = tested on: A. baumannii strains; assay: MIC against A. baumannii strains (Table M8); details: Acinetobacter baumannii, BAA747, A. baumannii BAA747-1
[4] = tested on: SA101 S. aureus ATCC29213; assay: broth dilution MIC, S. aureus SA101; details: Staphylococcus aureus, ATCC29213, SA101 S. aureus ATCC29213; read-out: MIC
From the text: (§2) We have collected MIC data for a total of 50 novel macrolides that this platform has produced against over 21 unique strains of B. subtilis, E. coli, S. aureus, S. pneumoniae, and H. influenzae, including several multidrug-resistant strains, with a special focus on macrolide resistant mechanisms (vide supra). Azithromycin was included as a control macrolide. CLSI standard procedures for broth dilution MIC determination were used. […] These genotypes can be constitutive or inducible. The finding that C4-epi (unnatural) isomers of the “azaketolide” macrolide class have enhanced activities relative to C4 natural isomers is very exciting.

[5] = tested on: K. pneumoniae strains; assay: MIC against K. pneumoniae strains (Table M8); details: Klebsiella pneumoniae, K. pneumoniae 10031
[6] = tested on: EC882 E. coli imp; assay: broth dilution MIC, E. coli EC882; details: Escherichia coli
From the text: as §2

[7] = tested on: BS1725 B. subtilis ermC; assay: broth dilution MIC, B. subtilis BS1725; details: Bacillus subtilis
From the text: as §2

[8] = tested on: EC107 E. coli ATCC25922; assay: broth dilution MIC, E. coli EC107; details: Escherichia coli, read-out: MIC
From the text: as §2

[9] = tested on: E. coli strains; assay: MIC against E. coli strains (Table M7); details: Escherichia coli, ATCC25922, E. coli ATCC 25922
Method in brief: as §1

[10] = tested on: S. pneumoniae strains; assay: MIC against S. pneumoniae strains (Tables M7, M8); details: Streptococcus pneumoniae
From the text: CLSI standard procedures for broth dilution MIC determination were used. […] These genotypes can be constitutive or inducible.

[11] = tested on: BS1723 B. subtilis BS168 WT wild type; assay: broth dilution MIC, B. subtilis BS1723; details: Bacillus subtilis, BS1723 B. subtilis BS168 WT wild type; read-out: MIC
From the text: as §2

[12] = tested on: S. aureus strains; assay: MIC against S. aureus strains (Table M7); details: Staphylococcus aureus
Method in brief: as §1

[13] = tested on: EC878 E. coli tolC; assay: broth dilution MIC, E. coli EC878; details: Escherichia coli
From the text: as §2

[14] = tested on: S. aureus (Newman, clinical isolate); assay: MIC, S. aureus Newman; details: Staphylococcus aureus
From the text: as §2

[15] = tested on: E. coli (MC4100); assay: MIC, E. coli MC4100; details: Escherichia coli
From the text: as §2

[16] = H. influenzae 49247, read-out: MIC H. influenzae (49247)
[17] = H. influenzae 49766, read-out: MIC H. influenzae (49766)
[18] = S. pneumoniae 160, read-out: MIC S. pneumonae (160)
[19] = S. pneumoniae 1509, read-out: MIC S. pneumoniae (1509)
[20] = S. pneumoniae 1533, read-out: MIC S. pneumoniae (1533)
[21] = S. pneumoniae 1537, read-out: MIC S. pneumoniae (1537)
[22] = S. pneumoniae 49619, read-out: MIC S. pneumoniae (49619)
[23] = ATCC29213, S. aureus ATCC 29213, read-out: MIC S. aureus (ATCC 29213)
[24] = S. aureus 506, read-out: MIC S. aureus (506)
[25] = S. aureus 1708, read-out: MIC S. aureus (1708)
[26] = USA300, S. aureus USA300, read-out: MIC S. aureus (USA300)
[27] = S. aureus (Neuman, clinical isolate), round 2

Row | Structure (SMILES) | MIC [1] | MIC [2, 16] | MIC [2, 17] | MIC [3] | MIC [4] | MIC [5] | MIC [6] | MIC ([7]; BS1725 B. subtilis ermC (+ery)) | MIC [8] | MIC [9] | MIC [10, 18] | MIC [10, 19] | MIC [10, 20] | MIC [10, 21] | MIC [10, 22] | MIC [11] | MIC [12, 23] | MIC [12, 24] | MIC [14, 27] | MIC ([15]; round 2, read-out: MIC) | other results
1 | CC[C@H]1OC(=O)[C@H](C)C(=O)[C@H](C)[C@@H](O[C@@H]2OC(C)CC(N(C)C)C2O)[C@](C)(OC)C[C@@H](C)CN[C@H](C)[C@H]2N(CCCCn3cc(-c4nccs4)nn3)C(=O)O[C@]12C (stereo partly drawn) [FSM-20708] | 0.5 µg/mL (≈ 0.61 µM) | 0.25 µg/mL (≈ 0.305 µM) | 2 µg/mL (≈ 2.44 µM) | 16 µg/mL (≈ 19.5 µM) | 2 µg/mL (≈ 2.44 µM) | 2 µg/mL (≈ 2.44 µM) | 0.0625 µg/mL (≈ 0.0762 µM) | 16 µg/mL (≈ 19.5 µM) | 8 µg/mL (≈ 9.76 µM) | 4 µg/mL (≈ 4.88 µM) | 0.125 µg/mL (≈ 0.152 µM) | 4 µg/mL (≈ 4.88 µM) | > 32 µg/mL | > 32 µg/mL | 0.5 µg/mL (≈ 0.61 µM) | 1 µg/mL (≈ 1.22 µM) | 2 µg/mL (≈ 2.44 µM) | > 32 µg/mL |  |  | MIC [12, 25]: 2 µg/mL (≈ 2.44 µM); MIC [12, 26]: 2 µg/mL (≈ 2.44 µM); MIC [13]: 1 µg/mL (≈ 1.22 µM)
2 | CC[C@H]1OC(=O)CC(=O)[C@H](C)[C@@H](O[C@@H]2OC(C)CC(N(C)C)C2O)[C@](C)(OC)C[C@@H](C)CN[C@H](C)[C@H]2N(CCCCn3cc(-c4ccccn4)nn3)C(=O)O[C@]12C (stereo partly drawn) [FSM-56139] |  |  |  |  |  |  |  |  |  |  |  |  |  |  |  |  |  |  | 16 µg/mL (≈ 20 µM) | 32 µg/mL (≈ 40 µM) | 
3 | CC[C@H]1OC(=O)[C@H](Cc2ccccc2)C(=O)[C@H](C)[C@@H](O[C@@H]2OC(C)CC(N(C)C)C2O)[C@](C)(OC)C[C@@H](C)CN[C@H](C)[C@H]2N(CCCCn3cc(-c4cccc(N)c4)nn3)C(=O)O[C@]12C (stereo partly drawn) [FSM-56158] |  |  |  |  |  |  |  |  |  |  |  |  |  |  |  |  |  |  | 8 µg/mL (≈ 8.85 µM) | 32 µg/mL (≈ 35.4 µM) | 
4 | CC[C@H]1OC(=O)[C@H](C)C(=O)C[C@@H](O[C@@H]2OC(C)CC(N(C)C)C2O)[C@@](C)(OC)C[C@@H](C)CN[C@H](C)[C@H]2N(CCCCn3cc(-c4cccc(N)c4)nn3)C(=O)O[C@]12C (stereo partly drawn) [FSM-30502] | > 32 µg/mL | 16 µg/mL (≈ 19.7 µM) | > 32 µg/mL | > 32 µg/mL | > 32 µg/mL | > 32 µg/mL | > 32 µg/mL | > 32 µg/mL | > 32 µg/mL | > 32 µg/mL | > 32 µg/mL | > 32 µg/mL | > 32 µg/mL | > 32 µg/mL | > 32 µg/mL | > 32 µg/mL | > 32 µg/mL | > 32 µg/mL |  |  | MIC ([7]; BS1725 B. subtilis ermC (−ery)): > 32 µg/mL; MIC [12, 25]: > 32 µg/mL; MIC [12, 26]: > 32 µg/mL; MIC [13]: > 32 µg/mL
5 | CC[C@H]1OC(=O)[C@H](C)C(=O)[C@H](C)[C@@H](O[C@@H]2OC(C)CC(N(C)C)C2O)[C@](C)(OC)C[C@@H](C)CN[C@H](C)[C@H]2N(CCCCCn3cc(-c4ccccn4)nn3)C(=O)O[C@]12C (stereo partly drawn) [FSM-40350] |  |  |  |  |  |  |  |  |  |  |  |  |  |  |  |  |  |  |  |  | MIC ([14]; S. aureus (Newman, clinical isolate), round 1): 2 µg/mL (≈ 2.42 µM); MIC ([15]; round 1, read-out: MIC): 16 µg/mL (≈ 19.3 µM)
6 | CC[C@H]1OC(=O)[C@H](C)C(=O)[C@H](C)[C@@H](O[C@@H]2OC(C)CC(N(C)C)C2O)/C(C)=C/CN[C@H](C)[C@H]2N(CCCCn3cc(-c4ccccn4)nn3)C(=O)O[C@]12C (stereo partly drawn) [FSM-30625] |  |  |  |  |  |  |  |  |  |  |  |  |  |  |  |  |  |  | > 32 µg/mL | > 32 µg/mL | 
